In PMC3991719 (PLoS ONE, 2014):

Tests used:
S. aureus MN8 = format: cell-based, Staphylococcus aureus
[1] = test system: TSST-1 production by S. aureus MN8; format: cell-based, Staphylococcus aureus
L. crispatus = L. crispatus growth and culture pH, 9 h assay; format: cell-based, Lactobacillus crispatus; details: data not shown; for Alteration of L. crispatus media pH compared to untreated controls: broth cultures, pH meter; for Effect on L. crispatus growth (CFUs/ml): human normal vaginal isolate, 9 h assay, plate counts on Todd Hewitt agar
Description: Cultures of a human normal vaginal isolate of L. crispatus were subjected to the same 9 hour assay as used to determine peptide antimicrobial effects on S. aureus. CFUs/ml were determined by dilution plate counts on Todd Hewitt agar (BD). The pHs of overnight broth cultures were also determined with use of a standard pH meter.

S. aureus MNPE = format: cell-based, Staphylococcus aureus
[2] = test system: TSST-1 production by S. aureus MNPE; format: cell-based, Staphylococcus aureus
[3] = test system: α-toxin production by S. aureus MNPE; format: cell-based, Staphylococcus aureus
[4] = test system: human vaginal epithelial cells (HVECs)
[5] = test system: IL-8 production by HVECs exposed to S. aureus MN8; format: cell-based, human

Substance	Antimicrobial activity against S. aureus (S. aureus MN8)	Reduction of S. aureus growth (S. aureus MN8)	Lowest dose giving complete inhibition of TSST-1 production [1]	Effect on S. aureus MN8 growth (CFUs/ml) (S. aureus MN8)	TSST-1 inhibition activity (in words) [1]	Alteration of L. crispatus media pH compared to untreated controls (L. crispatus)	Effect on L. crispatus growth (CFUs/ml) (L. crispatus)	Effect on S. aureus MNPE growth (S. aureus MNPE)	TSST-1 inhibition activity (in words) [2]	Inhibition of α-toxin production (in words) [3]	Cytotoxicity to HVECs [4]	IL-8 production by HVECs incubated with MN8 and peptide [5]	Concentration at which inhibition of α-toxin production was shown [3]
HNP-1: human defensin peptide purchased from Sigma-Aldrich	no antimicrobial activity was observed	1 log	0.005 µg/mL										
HNP-2: human defensin peptide purchased from Sigma-Aldrich (CYCRIPACIAGERRYGTCIYQGRLWAFCC)	no antimicrobial activity was observed	1 log	0.005 µg/mL										
Hbg-2: Hbg-1 peptide with scrambled sequence (STKPFFYFLHTQVKASPTSHDG)				not antimicrobial at any concentration tested	comparably active as Hbg-1	nor was alteration in media pH observed	No inhibition of growth						
SP-1: hemoglobin-like synthetic peptide, 0% positively-charged amino acids (SFPTTATYFPAFDLSAGSAQVA)				lacked antimicrobial	lacked antimicrobial (data not shown) and TSST-1 inhibition activity	nor was alteration in media pH observed	No inhibition of growth	lacked antimicrobial	lacked antimicrobial (data not shown) and TSST-1 inhibition activity	no inhibition of α-toxin production			
SP-2: hemoglobin-like synthetic peptide, 50% positively-charged amino acids (SKPKKKTYKPHKDLSHGSAKKK)				without affecting bacterial growth	showed the greatest TSST-1 inhibition activity	nor was alteration in media pH observed	No inhibition of growth	without affecting bacterial growth	showed the greatest TSST-1 inhibition activity		not cytotoxic	3.6 ± 7.2 pg/mL	0.005 µg/mL
